Source: patent publication EP0478101B1, “Therapeutic use of peptides having thrombospondin-like activity” (W.R. Grace & Co.-Conn., priority 1990, dated 1992)
Positions of bridges follow the written chain, without caps; N, C: chain ends. Residues, ends and D or L forms follow the SMILES beside them. No end group written: not given here.

Tests used:
Test in all cases: Cell adhesion to peptide-coated wells compared with thrombospondin
Format in all cases: cell-based
Details in all cases: two micrograms of peptide dried on well, 200,000 cells per well, 30 minutes at 37°C, relative to thrombospondin
[1] = test system: B16-F10 Mouse Melanoma
Method: (§1) In this example a series of peptides were tested to determine the abilities of the peptides to bind various cells as compared to thrombospondin. It is believed that thrombospondin acts in metastasis through its adhesive properties. An assay was developed, generally in accordance with the disclosure of Tuszynski et al. (Anal. Bio. (1990) 184:189-91) which evaluates the ability of cells to adhere to the thrombospondin fragments or analogs of the invention. In this assay, thrombospondin (purified by the method of Tuszynski et al., J. Biol. Chem. (1985) 260:12240-5) served as a positive control, bovine serum albumin (BSA) (Sigma Chemical Co.) and the peptides ANKHYF and VCTGSC and TCVCGS served as negative controls. The cell types evaluated were B16F10 mouse melanoma cells, A549 human lung adrenocarcinoma cells, bovine aortic smooth muscle cells, and rabbit smooth muscle cells.
(§2) Thrombospondin analogs of the invention were synthesized as described in Examples 1-4. Two micrograms of peptide or control proteins were air dried overnight on the wells of a 96-well microtiter plate. Wells were then washed with HEPES-buffered saline and blocked for 1 hour with 1% fatty acid free BSA in HEPES-buffered saline.
(§3) The various cells were grown and harvested during log phase of growth using standard procedures. The harvested cells were washed two times in serum-free Dulbecco's minimum essential medium (DMEM) (Flow Laboratories) and suspended in HEPES-buffered saline, containing 5 mM glucose and 100 µM MgCl2 at a final concentration of […]. Of the cell suspension 200,000 cells per well was added to each well of the microtiter dish containing the various ligands and the dish incubated at 37°C in a CO2 incubator for 30 minutes. Nonadherent cells were removed by aspiration and the wells washed three times with 200 µl of PBS. The total cell-associated protein was determined by dissolving the attached cells directly in the microtiter wells with 200 µl of the Pierce BCA working solution (Pierce Chem. Co. Booklet No. 23225 (1987)). The plate was covered with an adhesive mylar sheet (Flow Labs) and incubated at 60°C for 30 minutes. Plates were allowed to cool to room temperature, cover sheets were removed, and the absorbance of each well was determined at 562 nm with a microtiter plate reader (Biotek, Burlington, Vermont.) Absorbances were converted to number of adherent cells by means of an empirically determined conversion factor.

[2] = test system: Rabbit Smooth Muscle
Method: as §1, §2, §3

[3] = test system: Bovine Aortic Endothelia 1 Cells
Method: [Worded in the source for another cell line; this cell line is reported under the same test.] as §1, §2, §3

[4] = test system: A549 Human Lung Adenocarcinoma
Method: as §1, §2, §3

Row | Compound | Percent of TSP-adherent Cells [1] [%] | Percent of TSP-adherent Cells [2] [%] | Percent of TSP-adherent Cells [3] [%] | Percent of TSP-adherent Cells [4] [%]
1 | CC(C)[C@H](NC(=O)[C@H](CCCNC(=N)N)NC(=O)[C@@H](N)CS)C(=O)N[C@H](C(=O)N[C@@H](CS)C(=O)NCC(=O)O)[C@@H](C)O [CRVTCG (SEQ ID NO:5), CRVTCG] (H-CRVTCG-OH) | 92 | 82 | 80 | 79
2 | C[C@@H](O)[C@H](NC(=O)[C@H](CO)NC(=O)[C@@H](N)CS)C(=O)N[C@@H](CO)C(=O)N[C@@H](CS)C(=O)NCC(=O)O [CSTSCG (SEQ ID NO:4), CSTSCG] (H-CSTSCG-OH) | 37 | 22 | 39 | 23
3 | C[C@@H](O)[C@H](NC(=O)[C@H](CO)NC(=O)[C@@H](N)CS)C(=O)N[C@@H](CO)C(=O)N[C@@H](CS)C(=O)N[C@@H](CCCNC(=N)N)C(=O)O [CSTSCR (SEQ ID NO:3), CSTSCR] (H-CSTSCR-OH) | 39 | 82 | 65 | 104
4 | CC(C)[C@H](NC(=O)[C@H](CO)NC(=O)[C@@H](N)CS)C(=O)N[C@H](C(=O)N[C@@H](CS)C(=O)NCC(=O)O)[C@@H](C)O [CSVTCG (SEQ ID NO:1), CSVTCG] (H-CSVTCG-OH) | 40 | 44 | 49 | 29
5 | CC(C)[C@H](NC(=O)[C@H](CO)NC(=O)[C@@H](N)CS)C(=O)N[C@H](C(=O)N[C@@H](CS)C(=O)N[C@@H](CCCNC(=N)N)C(=O)O)[C@@H](C)O [CSVTCR (SEQ ID NO:2), CSVTCR] (H-CSVTCR-OH) | 92 | 159 | 99 | 90
6 | CC(C)[C@@H]1NC(=O)[C@H](CO)NC(=O)[C@@H](N)CSSC[C@@H](C(=O)NCC(=O)O)NC(=O)[C@H]([C@@H](C)O)NC1=O [Cyclic CSVTCG (SEQ ID NO:1), cyclic CSVTCG-Acid] (H-CSVTCG-OH; disulfide 1-5) | 30 | 43 | 25 | 29
7 | CC(C)[C@H](NC(=O)[C@H](CS)NC(=O)[C@@H](N)[C@@H](C)O)C(=O)N[C@@H](CS)C(=O)NCC(=O)N[C@@H](CO)C(=O)O [TCVCGS, reference compound] (H-TCVCGS-OH) | 10 | 8 | 6 | 10
8 | CC(C)[C@H](N)C(=O)N[C@@H](CS)C(=O)N[C@H](C(=O)NCC(=O)N[C@@H](CO)C(=O)N[C@@H](CS)C(=O)O)[C@@H](C)O [VCTGSC, reference compound] (H-VCTGSC-OH) | 2 | 17 | 3 | 8
9 | ANKHYF [ANKHYF, reference compound] | 8 | 17 | 0 | 10
10 | ASVTAR [ASVTAR (SEQ ID NO:7), ASVTAR] | 39 |  |  | 
11 | Blocked CSVTCG [Blocked CSVTCG (SEQ ID NO:1)] | 32 | 46 | 22 | 44
